In patent US7259170B2, “Macrolides containing pharmaceutical compositions” (Novartis AG, priority 2001, dated 2007):
Structures can show the parent of a compound that is named as a salt. Marks after values point to notes of the source that are not given here.

Tested on: Experimental autoimmune uveitits (EAU)
Assay: Experimental autoimmune uveitits (EAU) test in rats
Assay type: in vivo, LEWIS rats
Details: for EAU 1st: Day of first signs of EAU (mean±SD) / EAU 10: Incidence of EAU on day 10 (affected animals/animals per group) / EAU POS: Number of EAU positive rats (affected animals/animals per group until end of the study) / SCORE MAX DAY: day of maximum score / SCORE MAX SCORE: Maximum score (mean of both eye lesions±SD): oral once daily; for course and intensity of the disease compared with placebo controls: oral, 0.1 mg/kg compound of formula IIa or 15 mg/kg/day compound of formula I alone, combination at the same dosage levels
[1] = Example 1, 5 rats per group, 14 days, Dosis mg/kg/day: Cpd IIa 0.1, Cpd I 15, combination 1.5 [sic] + 15
[2] = Example 1, 14 days, Dosis mg/kg/day: Cpd IIa 0.1, Cpd I 15, combination 1.5 [sic] + 15
[3] = Example 1, scores 0 to 4 for 1 eye, 14 days, Dosis mg/kg/day: Cpd IIa 0.1, Cpd I 15, combination 1.5 [sic] + 15
[4] = Example 2, 6 rats per group, 14 days (14×), mg/kg/day: Cpd IIa 0.1, Cpd I 15, combination 15 + 0.1

SMILES	EAU 1st: Day of first signs of EAU (mean±SD) [1]	EAU 10: Incidence of EAU on day 10 (affected animals/animals per group) [1]	EAU POS: Number of EAU positive rats (affected animals/animals per group until end of the study) [1]	SCORE MAX DAY: day of maximum score [2] [days]	course and intensity of the disease compared with placebo controls (Example 1)	SCORE MAX SCORE: Maximum score (mean of both eye lesions±SD) [3]	EAU 1st: Day of first signs of EAU (mean±SD) [4]	EAU 10: Incidence of EAU on day 10 (affected animals/animals per group) [4]	EAU POS: Number of EAU positive rats (affected animals/animals per group until end of the study) [4]	SCORE MAX DAY: day of maximum score [4] [days]	SCORE MAX SCORE: Maximum score (mean of both eye lesions±SD) [4]
CCCCCCCCc1ccc(CCC(N)(CO)CO)cc1 [Cpd IIa, 2-amino-2[2-(4-octylphenyl)ethyl]propane-1,3-diol hydrochloride]	10.5 (0.6) day	2/5	4/4*^)	13	not distinctively different from placebo controls	8.0 (0.0)	11.2 (1.0) day	0/6	6/6	14	8.0 (0.0)
CC[C@@H]1/C=C(\C)C[C@H](C)C[C@H](OC)[C@H]2O[C@@](O)(C(=O)C(=O)N3CCCC[C@H]3C(=O)O[C@H](/C(C)=C/[C@@H]3CC[C@H](Cl)[C@H](OC)C3)[C@H](C)[C@@H](O)CC1=O)[C@H](C)C[C@@H]2OC [Cpd I, 33-epi-33-chloro-FR 520]	11.8 (1.3) day	1/5	5/5	14	not distinctively different from placebo controls	6.8 (1.3)	11.5 (0.8) day	2/6	6/6	14	6.0 (2.5)
